One block for each molecule: values may come before it.
Assays:
Caco-2 = test: Antiproliferative activity against human Caco2 cells by MTT assay; assay type: functional, cell-based
JIMT-1 [1] = test: Antiproliferative activity against human JIMT1 cells by MTT assay; assay type: functional, cell-based
HGC-27 [2] = test: Antiproliferative activity against human HGC27 cells after 48 hrs by MTT assay; assay type: functional, cell-based; conditions: HGC-27, 48 h
JIMT-1 [3] = test: Antiproliferative activity against human JIMT1 cells; assay type: functional, cell-based
[4] = Antiproliferative activity against HMLER cells by MTT assay Breast cancer stem cell; assay type: functional, cell-based; conditions: Homo sapiens
HT-29 = test: Antiproliferative activity against human HT-29 cells after 48 hrs by MTT assay; assay type: functional, cell-based; conditions: HT-29, 48 h
MDA-MB-231 [5] = test: Antiproliferative activity against human MDA-MB-231 cells after 48 hrs by MTT assay; assay type: functional, cell-based; conditions: MDA-MB-231, 48 h
MDA-MB-231 [6] = test: Antiproliferative activity against human MDA-MB-231 cells by MTT assay; assay type: functional, cell-based
MCF7 [7] = test: Antiproliferative activity against human MCF7 cells by MTT assay; assay type: functional, cell-based
[8] = Antiproliferative activity against human LoVo/DX cells by SRB assay; assay type: functional, cell-based
U-87 MG = test: Antiproliferative activity against human U87 cells by MTT assay; assay type: functional, cell-based, U-87MG ATCC
MDA-MB-231 [9] = test: Antiproliferative activity against human MDA-MB-231 cells by SRB assay; assay type: functional, cell-based
HeLa = test: Antiproliferative activity against human HeLa cells by MTT assay; assay type: functional, cell-based
HGC-27 [10] = test: Antiproliferative activity against human HGC27 cells by MTT assay; assay type: functional, cell-based
HCC1937 [11] = test: Antiproliferative activity against human HCC1937 cells; assay type: functional, cell-based
4T1 = test: Antiproliferative activity against mouse 4T1 cells by MTT assay; assay type: functional, cell-based
HCC1937 [12] = test: Antiproliferative activity against human HCC1937 cells after 72 hrs by MTT assay; assay type: functional, cell-based; conditions: HCC1937, 72 h
JIMT-1 [13] = test: Antiproliferative activity against human JIMT1 cells after 72 hrs by MTT assay; assay type: functional, cell-based; conditions: JIMT-1, 72 h
MCF7 [14] = test: Antiproliferative activity against human MCF7 cells; assay type: functional, cell-based
SK-BR-3 = test: Antiproliferative activity against human SKBR3 cells by SRB assay; assay type: functional, cell-based
MCF7 [15] = test: Antiproliferative activity against human MCF7 cells by SRB assay; assay type: functional, cell-based
MCF-10A = test: Antiproliferative activity against human MCF10A cells by SRB assay; assay type: cell-based
JIMT-1 [16] = test: Antiproliferative activity against human JIMT1 cells by SRB assay; assay type: functional, cell-based
LoVo = test: Antiproliferative activity against human LoVo cells by SRB assay; assay type: functional, cell-based

Compound: CC[C@@H](C(=O)[C@@H](C)[C@@H](O)[C@H](C)[C@@H]1O[C@@H]([C@@H](CC)C(=O)O)CC[C@@H]1C)[C@H]1O[C@]2(C=C[C@@H](O)[C@]3(CC[C@@](C)([C@H]4CC[C@](O)(CC)[C@H](C)O4)O3)O2)[C@H](C)C[C@@H]1C [SALINOMYCIN]
- IC50 (Caco-2): 13 µM
- IC50 (JIMT-1 [1]): 0.52 µM
- IC50 (HGC-27 [2]): 8.18 µM
- IC50 (JIMT-1 [3]): 0.52 µM
- IC50 [4]: 0.1 µM
- IC50 (HT-29): 3.21 µM
- IC50 (MDA-MB-231 [5]): > 10 µM
- IC50 (MDA-MB-231 [6]): 6.91 µM
- IC50 (MCF7 [7]): 0.59 µM
- IC50 [8]: 0.69 µM
- IC50 (U-87 MG): 38.7 µM
- IC50 (MDA-MB-231 [9]): 6.42 µM
- IC50 (HeLa): 0.32 µM
- IC50 (HGC-27 [10]): 2.57 µM

Compound: CC[C@@H](C(=O)[C@@H](C)[C@@H](O)[C@H](C)[C@@H]1O[C@@H]([C@@H](CC)C(=O)O)CC[C@@H]1C)[C@H]1O[C@]2(C=CC[C@]3(CC[C@@](C)([C@H]4CC[C@](O)(CC)[C@H](C)O4)O3)O2)[C@H](C)C[C@@H]1C
- IC50 (HCC1937 [12]): > 10 µM
- IC50 (JIMT-1 [13]): 1.73 µM

Compound: CC[C@@H](C(=O)[C@@H](C)[C@@H](O)[C@H](C)[C@@H]1O[C@@H]([C@@H](CC)C(=O)O)CC[C@@H]1C)[C@H]1O[C@]2(CCC[C@]3(CC[C@@](C)([C@H]4CC[C@](O)(CC)[C@H](C)O4)O3)O2)[C@H](C)C[C@@H]1C
- IC50 (HCC1937 [12]): > 10 µM
- IC50 (JIMT-1 [13]): 2.08 µM

Compound: CC[C@@H](C(=O)[C@@H](C)[C@@H](O)[C@H](C)[C@@H]1O[C@@H]([C@@H](CC)C(=O)O)CC[C@@H]1C)[C@H]1O[C@]2(C=C[C@@H](OC(=O)c3ccc(C(=O)O[C@@H]4C=C[C@]5(O[C@H]([C@@H](CC)C(=O)[C@@H](C)[C@@H](O)[C@H](C)[C@@H]6O[C@@H]([C@@H](CC)C(=O)O)CC[C@@H]6C)[C@@H](C)C[C@H]5C)O[C@@]45CC[C@@](C)([C@H]4CC[C@](O)(CC)[C@H](C)O4)O5)cc3)[C@]3(CC[C@@](C)([C@H]4CC[C@](O)(CC)[C@H](C)O4)O3)O2)[C@H](C)C[C@@H]1C
- IC50 (SK-BR-3): 1 µM
- IC50 (MCF7 [15]): 1.8 µM
- IC50 [8]: 2.8 µM
- IC50 (MCF-10A): 21 µM
- IC50 (JIMT-1 [16]): 2.4 µM
- IC50 (LoVo): 1.2 µM

More lines, main results first:

- IC50 (HCC1937 [11]): 4.36 µM
Compound: CC[C@@H](C(=O)[C@@H](C)[C@@H](O)[C@H](C)[C@@H]1O[C@@H]([C@@H](CC)C(=O)OCC[Si](C)(C)C)CC[C@@H]1C)[C@H]1O[C@]2(C=C[C@@H](O)[C@]3(CC[C@@](C)([C@H]4CC[C@](O)(CC)[C@H](C)O4)O3)O2)[C@H](C)C[C@@H]1C

- IC50 (4T1): 3.69 µM
Compound: CC[C@@H](C(=O)[C@@H](C)[C@@H](O)[C@H](C)[C@@H]1O[C@@H]([C@@H](CC)C(=O)O)CC[C@@H]1C)[C@H]1O[C@]2(C=C[C@H](n3cc(-c4ccc(Br)cc4)nn3)[C@]3(CC[C@@](C)([C@H]4CC[C@](O)(CC)[C@H](C)O4)O3)O2)[C@H](C)C[C@@H]1C

- IC50 (MCF7 [14]): 13.7 µM
Compound: CC[C@@H]([C@@H](O)[C@@H](C)[C@@H](O)[C@H](C)[C@@H]1O[C@@H]([C@@H](CC)C(=O)O)CC[C@@H]1C)[C@H]1O[C@]2(C=C[C@@H](O)[C@]3(CC[C@@](C)([C@H]4CC[C@](O)(CC)[C@H](C)O4)O3)O2)[C@H](C)C[C@@H]1C
- IC50 (JIMT-1 [3]): 12.5 µM

- IC50 (4T1): 3.83 µM
Compound: CC[C@@H](C(=O)[C@@H](C)[C@@H](O)[C@H](C)[C@@H]1O[C@@H]([C@@H](CC)C(=O)O)CC[C@@H]1C)[C@H]1O[C@]2(C=C[C@H](n3cc(-c4ccccc4C(=O)OC)nn3)[C@]3(CC[C@@](C)([C@H]4CC[C@](O)(CC)[C@H](C)O4)O3)O2)[C@H](C)C[C@@H]1C

- IC50 (MCF7 [14]): 0.89 µM
Compound: CC[C@@H](C(=O)[C@@H](C)[C@@H](O)[C@H](C)[C@@H]1O[C@@H]([C@@H](CC)C(=O)O)CC[C@@H]1C)[C@H]1O[C@]2(CC[C@@H](O)[C@]3(CC[C@@](C)([C@H]4CC[C@](O)(CC)[C@H](C)O4)O3)O2)[C@H](C)C[C@@H]1C
- IC50 (JIMT-1 [3]): 1 µM

- IC50 (MCF7 [14]): 3.11 µM
Compound: CC[C@@H](C(=O)[C@@H](C)[C@@H](O)[C@H](C)[C@@H]1O[C@@H]([C@@H](CC)C(=O)O)CC[C@@H]1C)[C@H]1O[C@]2(CCC(=O)[C@]3(CC[C@@](C)([C@H]4CC[C@](O)(CC)[C@H](C)O4)O3)O2)[C@H](C)C[C@@H]1C
- IC50 (JIMT-1 [3]): 2.68 µM

— ChEMBL document CHEMBL4316586, “A comprehensive review of salinomycin derivatives as potent anticancer and anti-CSCs agents” (Eur J Med Chem, 2019)
